Data on four compounds can be found in ChEMBL document CHEMBL5726104, “4,6-disubstituted aminopyrimidine derivatives have anti-HIV activity” (2017).

Molecules are shown by their SMILES.

Sequence of Cyclin-dependent kinase 9 (P50750 whole entry): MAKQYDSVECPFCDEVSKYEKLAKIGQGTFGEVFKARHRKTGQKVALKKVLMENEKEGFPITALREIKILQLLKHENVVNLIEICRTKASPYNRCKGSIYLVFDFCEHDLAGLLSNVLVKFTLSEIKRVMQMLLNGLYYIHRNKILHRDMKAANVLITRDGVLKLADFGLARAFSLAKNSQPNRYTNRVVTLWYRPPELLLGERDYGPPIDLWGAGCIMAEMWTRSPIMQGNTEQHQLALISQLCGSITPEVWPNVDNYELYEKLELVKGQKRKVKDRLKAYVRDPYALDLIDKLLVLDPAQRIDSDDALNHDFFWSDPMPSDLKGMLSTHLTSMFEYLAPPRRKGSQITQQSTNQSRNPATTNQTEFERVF

This assay addresses Cyclin-dependent kinase 9 (Homo sapiens, UniProt P50750). The assay can be described thus: Fluorescent Polarization Assay: The activity of the compounds described in the present invention can be determined by measuring the phosphorylation of a fluorescently-labeled peptide by human CDK9/CyclinT kinase complex by fluorescent polarization using a commercially available IMAP Screening Express Assay Kit (Molecular devices).Test compounds were diluted in 100% DMSO to 5 mM stock concentration, then further dilutions were made in H2O or 100% DMSO to desirable concentrations. Each reaction consisted of 5 nM enzyme: CDK9/CyclinT (Proqinase cat#0371-0345-1), 400 nM TAMRA-Rbtide (synthetic 15-mer peptide derived from human retinoblastoma tumor suppressor protein labeled with TAMRA dye, Genecust Europe), 12 μM ATP (=Kmapp, Sigma-Aldrich) and kinase buffer: 20 mM MOPS pH 7 (Sigma-Aldrich), 1 mM DTT (Sigma-Aldrich), 10 mM MgCl2 (Sigma-Aldrich), 0.01% Tween 20 (Sigma-Aldrich).For each reaction, 4 or 6 μl containing TAMRA-Rbtide, ATP and kianse buffer were combined with 2 μl diluted compound in H2O or 0.028 μl compound in 100% DMSO. The kinase reaction was started by the addition of 2 μl diluted enzyme.
One may read the IC50 as the midpoint of a concentration-inhibition curve. For `COc1ccccc1-c1cc(Nc2ccc(N3CCN(C)CC3)c(CO)c2)ncn1`, the 50% inhibitory concentration (IC50) was < 0.1 µM.

As for `COc1cccc(-c2cc(Nc3ccc(OC)c([N+](=O)[O-])c3)ncn2)c1`, the half-inhibitory concentration (IC50) is > 10 µM.

Take `COc1ccc(Nc2cc(-c3ccccc3OCc3ccccc3)ncn2)cc1[N+](=O)[O-]`: the IC50 is < 10 µM.

Turning to `COc1ccc(Nc2cc(-c3ccccc3OC)ncn2)cc1NS(C)(=O)=O`, the IC50 was < 0.1 µM.
